{
  "source": "paper PMC4363860",
  "about": "(Scientific Reports, 2015)",
  "key": {"[1]": {"test_system": "panel of GNB: E. coli 35218, 14182, 16327, 16329, 14384, S. Typhimurium 14028, S. stanley 7308, K. pneumoniae 1287, KPC2", "experiment": "MIC and chemo-sensitization, one result for the whole panel of GNB (Suppl. Table S1)"}, "[2]": {"test_system": "Human blood (red cells, 1% hematocrit)", "settings": "3 h incubation in PBS 37°C; published data; cited from earlier work", "text": "Table 1 Structure-activity study highlighting biophysical attributes of N-terminal OAK derivatives | column: LC50 ^d (μM)"}, "[3]": {"test_system": "Klebsiella", "experiment": "MIC (Suppl. Figs S2, S3)", "assay_type": "cell-based"}, "[4]": {"test_system": "E. coli", "experiment": "MIC and reciprocal sensitization (Fig. 2a,b; Suppl. Figs S2, S3)", "assay_type": "cell-based, Escherichia coli"}, "[5]": {"settings": "one value for all nine listed strains"}, "[6]": {"settings": "one value for all nine listed strains, OAK 1.25 µg/ml"}, "[7]": {"settings": "one value for all nine listed strains, OAK 2.5 µg/ml"}, "[8]": {"settings": "one value for all nine listed strains, OAK 5 µg/ml"}},
  "note": "Where two headings read alike, the source gives them in different places. Where a SMILES comes first, the peptide text is derived from it. [ ]: non-standard residue; d: D form. The star is where a group is joined. Lauroyl = CCCCCCCCCCCC(=O)*; 12Ado = NCCCCCCCCCCCC(=O)O",
  "data": [
    {"molecule": "CC1(C)S[C@@H]2[C@H](NC(=O)Cc3ccccc3)C(=O)N2[C@H]1C(=O)O", "note": "[Penicillin G, penicillin G]", "values": [
      {"measurement": "SF, sensitization factor, penicillin G with C10KKc12K", "setting": "[1]; [5]", "value": 1},
      {"measurement": "SF, sensitization factor, penicillin G with C12(ω7)KKc12K", "setting": "[1]; [5]", "value": 1},
      {"measurement": "MIC of penicillin G in presence of C10KKc12K", "setting": "[1]; [6]", "value": "> 512", "unit": "µg/mL"},
      {"measurement": "MIC of penicillin G in presence of C12(ω7)KKc12K", "setting": "[1]; [6]", "value": "> 512", "unit": "µg/mL"},
      {"measurement": "MIC of penicillin G in presence of C10KKc12K", "setting": "[1]; [7]", "value": "> 512", "unit": "µg/mL"},
      {"measurement": "MIC of penicillin G in presence of C12(ω7)KKc12K", "setting": "[1]; [7]", "value": "> 512", "unit": "µg/mL"},
      {"measurement": "MIC of penicillin G in presence of C10KKc12K", "setting": "[1]; [8]", "value": "> 512", "unit": "µg/mL"},
      {"measurement": "MIC of penicillin G in presence of C12(ω7)KKc12K", "setting": "[1]; [8]", "value": "> 512", "unit": "µg/mL"},
      {"measurement": "MIC", "setting": "[1]; read-out: MIC of penicillin G in presence of C10KKc12K", "value": "> 512", "unit": "µg/mL"},
      {"measurement": "MIC", "setting": "[1]; read-out: MIC of penicillin G in presence of C12(ω7)KKc12K", "value": "> 512", "unit": "µg/mL"}
    ]},
    {"molecule": "NCCCC[C@H](NC(=O)CCCCCCCCCCCNC(=O)[C@H](CCCCN)NC(=O)[C@@H](N)CCCCN)C(N)=O", "note": "[X, lysyl-lysyl-aminododecanoyl-lysyl-amide] (H-KK[12Ado]K-NH2)", "values": [
      {"measurement": "LC50, OAK concentration that induced 50% hemolysis", "setting": "[2]", "value": ">100", "unit": "µM"}
    ]},
    {"molecule": "CC[C@H]1OC(=O)[C@H](C)[C@@H](O[C@H]2C[C@@](C)(OC)[C@@H](O)[C@H](C)O2)[C@H](C)[C@@H](O[C@@H]2O[C@H](C)C[C@H](N(C)C)[C@H]2O)[C@](C)(O)C[C@@H](C)C(=O)[C@H](C)[C@@H](O)[C@]1(C)O", "note": "[erythromycin]", "values": [
      {"measurement": "standalone antibiotic MIC", "setting": "[3]", "value": 512, "unit": "µg/mL"},
      {"measurement": "standalone antibiotic MIC", "setting": "[4]", "value": 512, "unit": "µg/mL"}
    ]},
    {"molecule": "CCCCCCCCCCCC(=O)N[C@@H](CCCCN)C(=O)N[C@@H](CCCCN)C(=O)NCCCCCCCCCCCC(=O)N[C@@H](CCCCN)C(N)=O", "note": "[C12X] (Lauroyl-KK[12Ado]K-NH2)", "values": [
      {"measurement": "LC50, OAK concentration that induced 50% hemolysis", "setting": "[2]", "value": "29 ± 9", "unit": "µM"}
    ]}
  ]
}
